According to US10570152B2, “Antibacterial therapeutics and prophylactics” (VYOME BIOSCIENCES PVT. LTD., priority 2015, dated 2020):
Converted amounts (≈) assume the structure as drawn. Read-outs that look alike come from different tables or passages of the source.

Columns and labels:
[1] = tested on: P. acnes CCARM 9010 induced paw inflammation; assay: Anti-inflammatory action in vivo, rat paw edema model; parameters: species or system Sprague Dawley rats; conditions: topical, 24 h post initiation of treatment (32 h post induction)
Source text: Host inflammation is one of the crucial clinical feature of most of the indications associated with bacterial infections. The inventors used an exemplary compound of the invention (Compound 2) to test the anti-inflammatory effects in vivo using rat paw edema model. Inflammation was induced using one of the opportunistic pathogens Propionibacterium acnes prevalent in implant associated infections. Sprague Dawley rats were used for the study and infection was induced by P. acnes CCARM 9010. An inoculum of 1×10^9 CFU/ml of the heat killed bacteria was injected to the plantar side of the right hind paw (˜2×10^7 CFU/paw) except in sham control where saline was injected. Treatments were initiated 8 h post injection by applying the test formulation of Compound 2 (30 mg) twice daily to the plantar surface of the right hind paw and gently rubbing 50 times with the index finger. Comparators Acnedap (dapsone 5% gel) and adapalene gel (Adaferin®) were applied twice daily and once daily based on clinical prescription dosage. Paw sizes were measured in millimeters using Vernier calipers at the start of the infection, 8 h post infection, and 24 h post initiation of treatment (32 h post induction of inflammation). The change in paw size, due to inflammation, was evaluated as the difference between the paw size measured at each time point and the basal paw size measured immediately before edema induction.

S. aureus MTCC 6908 = assay: MIC by micro broth dilution; format: cell-based; conditions: Staphylococcus aureus, MTCC6908, read-out: Minimum inhibitory concentration (MIC)
Protocol: (§1) MIC of DART molecules were determined by micro broth dilution as per CLSI guidelines. Bacterial strains were cultured in Brain Heart Infusion Agar (BHIA) at 37° C. for 24 h. For MIC determination, BHI broth (100 μl) was added to each of the wells of a 96 well plate. 100 μl of broth containing drug was added to the first well (1A to 1H) and thereafter serial (double) dilutions were carried out for up to 10 wells (column 1 to column 10 of the 96 well plate). Bacterial inoculum was prepared by adjusting the bacterial culture turbidity to 0.5 McFarland standard (approximately 1.5×10^8 cells/ml) and further diluted (100 times with sterile BHI broth). Diluted bacterial suspension (100 μl) was added to each well except sterility control wells (column 12 of 96 well plate). The plates were incubated at 37° C. for 24 h. The MIC of the test compound was measured after addition of Alamar blue dye.

[2] = tested on: S. epidermidis ATCC 35984; assay: MIC by micro broth dilution; format: cell-based; conditions: Staphylococcus epidermidis, ATCC35984, read-out: Minimum inhibitory concentration (MIC)
Protocol: as §1

E. fecalis CCARM 5168 = assay: MIC by micro broth dilution; format: cell-based; conditions: read-out: Minimum inhibitory concentration (MIC)
Protocol: as §1

S. aureus ATCC 43300 = assay: MIC by micro broth dilution; format: cell-based; conditions: for MIC: Staphylococcus aureus, ATCC43300, S. aureus ATCC 43300, read-out: Minimum inhibitory concentration (MIC)
Protocol: as §1

E. faecium CCARM 5207 = assay: MIC by micro broth dilution; format: cell-based; conditions: Enterococcus faecium, CCARM5207, read-out: Minimum inhibitory concentration (MIC)
Protocol: as §1

S. epidermidis S12-1 = assay: MIC by micro broth dilution; format: cell-based; conditions: Staphylococcus epidermidis, S121, read-out: Minimum inhibitory concentration (MIC)
Protocol: as §1

E. faecium NCIM 5421 = assay: MIC by micro broth dilution; format: cell-based; conditions: Enterococcus faecium, NCIM5421, read-out: Minimum inhibitory concentration (MIC)
Protocol: as §1

S. aureus CCARM 3505 = assay: MIC by micro broth dilution; format: cell-based; conditions: Staphylococcus aureus, CCARM3505, read-out: Minimum inhibitory concentration (MIC)
Protocol: as §1

[3] = tested on: S. epidermidis ATCC 35984 biofilm; assay: Biofilm disruption assay (MTT) with compounds and compound loaded beads; format: cell-based; conditions: for EC50: Staphylococcus epidermidis
Protocol: S. epidermidis ATCC 35984 was grown in Brain Heart Infusion Agar (BHIA) at 37° C. for 24 h. The loop full of bacterial culture was suspended in sterile water and matched the turbidity against 0.5 McFarland Standard (approximately 1.5×10^8), 100 μl of culture suspension was added into each well of the 96 well plate and plates were incubated at 37° C. for 48 h for biofilm formation. The biofilm formed in each well was washed twice with sterile water to remove the planktonic cells. Then biofilm was treated with 100 yl of BHI broth suspended with various concentrations of DART molecules, followed by incubation of the plates at 37° C. for 24 h. Subsequently the biofilm in the wells were stained with MTT reagent and the plates were incubated at 37° C. for 2 h. The precipitate formed in the wells was dissolved in 100 μl of dimethyl sulfoxide (DMSO) and the absorbance was measured at 600 nm in multi well plate reader to determine the minimum biofilm inhibitory concentration (MBIC). The MBIC was calculated by subtracting the absorbance value of each drug treated sample from that of 48 h growth control.

S. epidermidis S5-2 = assay: Sequential ZIB (zone of inhibition) assay for PMMA beads; format: cell-based, Staphylococcus epidermidis; conditions: SmartSet HV impregnated beads
Protocol: S. epidermidis S5-2 cells were grown in Brain Heart Infusion Agar (BHIA) at 37° C. for 24 h. 100 μl of 0.5 McFarland equal bacterial suspension was spread on BHA plates. Drug loaded beads were placed above these plates. Plates were incubated at 37° C. for 24 h. Next day, zone of inhibition (ZOI) the beads were measured following which the beads were placed on fresh BHA plates with bacterial suspension spread and this experiment was continued up to seven days. The drug release pattern was determined by compiling and analyzing the ZOI data of beads on each ZOI cycle up to seven days.

A. baumannii CCARM 12020 = assay: MIC by micro broth dilution; format: cell-based; conditions: Acinetobacter baumannii, CCARM12020, read-out: Minimum inhibitory concentration (MIC)
Protocol: as §1

A. baumannii CCARM 12001 = assay: MIC by micro broth dilution; format: cell-based; conditions: Acinetobacter baumannii, CCARM12001, read-out: Minimum inhibitory concentration (MIC)
Protocol: as §1

E. coli MTCC 1687 = assay: MIC by micro broth dilution; format: cell-based; conditions: Escherichia coli, MTCC1687, read-out: Minimum inhibitory concentration (MIC)
Protocol: as §1

P. aeruginosa ATCC 27853 = assay: MIC by micro broth dilution; format: cell-based; conditions: Pseudomonas aeruginosa, ATCC27853, read-out: Minimum inhibitory concentration (MIC)
Protocol: as §1

K. pneumonia ATCC 13883 = assay: MIC by micro broth dilution; format: cell-based; conditions: for activity in words: Klebsiella pneumonia (susceptible); for MIC: Klebsiella pneumoniae, ATCC13883, K. pneumonia ATCC 13883, read-out: Minimum inhibitory concentration (MIC)
Protocol: as §1

E. aerogenes M2-1 = assay: MIC by micro broth dilution; format: cell-based; conditions: Klebsiella aerogenes, M21, read-out: Minimum inhibitory concentration (MIC)
Protocol: as §1

P. aeruginosa CCARM 2161 = assay: MIC by micro broth dilution; format: cell-based; conditions: Pseudomonas aeruginosa, CCARM2161, read-out: Minimum inhibitory concentration (MIC)
Protocol: as §1

A. baumannii ATCC 1906 = assay: MIC by micro broth dilution; format: cell-based; conditions: Acinetobacter baumannii, ATCC1906, read-out: Minimum inhibitory concentration (MIC)
Protocol: as §1

E. aerogenes NCIM 5139 = assay: MIC by micro broth dilution; format: cell-based; conditions: Klebsiella aerogenes, NCIM5139, read-out: Minimum inhibitory concentration (MIC)
Protocol: as §1

P. aeruginosa CCARM 2204 = assay: MIC by micro broth dilution; format: cell-based; conditions: Pseudomonas aeruginosa, CCARM2204, read-out: Minimum inhibitory concentration (MIC)
Protocol: as §1

E. coli BAA 196 = assay: MIC by micro broth dilution; format: cell-based; conditions: Escherichia coli, BAA196, read-out: Minimum inhibitory concentration (MIC)
Protocol: as §1

Gram negative pathogens = assay: MIC interpretations, Gram negative pathogens; format: cell-based
Protocol: as §1

Structure (SMILES)	MIC (S. aureus MTCC 6908) [µg/mL]	MIC [2] [µg/mL]	MIC (E. fecalis CCARM 5168) [µg/mL]	MIC (S. aureus ATCC 43300) [µg/mL]	MIC (E. faecium CCARM 5207) [µg/mL]	MIC (S. epidermidis S12-1) [µg/mL]	MIC (E. faecium NCIM 5421) [µg/mL]	MIC (S. aureus CCARM 3505) [µg/mL]	MIC (A. baumannii CCARM 12020) [µg/mL]	MIC (A. baumannii CCARM 12001) [µg/mL]	MIC (E. coli MTCC 1687) [µg/mL]	MIC (P. aeruginosa ATCC 27853) [µg/mL]	MIC (K. pneumonia ATCC 13883) [µg/mL]	MIC (P. aeruginosa CCARM 2161) [µg/mL]	MIC (A. baumannii ATCC 1906) [µg/mL]	MIC (P. aeruginosa CCARM 2204) [µg/mL]	MIC (E. coli BAA 196) [µg/mL]	further results
COc1ccc(-c2ccc3cc(C(=O)O)ccc3c2)cc1C12CC3CC(CC(C3)C1)C2 [Adapalene, adapalene, reference compound]																		Inhibition of inflammation (%) at 24 h post treatment [1]: 31.55%
CC1Sc2c(C(=O)O)c(=O)c3cc(F)c(N4CCN(CC(=O)Nc5ccc6nc(N)[nH]c6c5)CC4)cc3n21 (stereo not shown) [Compound 19, 7-(4-(2-((2-Amino-1H-benzo[d]imidazol-6-yl)-amino)-2-oxoethyl)piperazin-1-yl)-6-fluoro-1-methyl-4-oxo-1H,4H-[1,3]thiazeto[3,2-a]quinoline-3-carboxylic acid]	> 64	16 (≈ 29.8 µM)	> 16	32 (≈ 59.5 µM)	> 16	> 16	> 16	> 16										
CN[C@H](CC(C)C)C(=O)N[C@H]1C(=O)N[C@@H](CC(N)=O)C(=O)N[C@H]2C(=O)N[C@H]3C(=O)N[C@H](C(=O)N[C@H](C(=O)O)c4cc(O)cc(O)c4-c4cc3ccc4O)[C@H](O)c3ccc(c(Cl)c3)Oc3cc2cc(c3O[C@@H]2O[C@H](CO)[C@@H](O)[C@H](O)[C@H]2O[C@H]2C[C@](C)(N)[C@H](O)[C@H](C)O2)Oc2ccc(cc2Cl)[C@H]1O [Vancomycin, reference compound]																		Biofilm disruption ([3]; PMMA beads of 3 mm diameter): 40; EC50 ([3]; ATCC35984, read-out: Concentration of compounds (mg/ml) for 50% biofilm disruption): 0.02 to 0.03 mg/mL (≈ 13.8 to 20.7 µM); Sequential ZOI (S. epidermidis S5-2; Day-1): 1.4 cm; Sequential ZOI (S. epidermidis S5-2; Day-2): 1.2 cm; Sequential ZOI (S. epidermidis S5-2; Day-3): 0.7 cm; Sequential ZOI (S. epidermidis S5-2; Day-4): 0.7 cm; Sequential ZOI (S. epidermidis S5-2; Day-5): 0 cm; Sequential ZOI (S. epidermidis S5-2; Day-6): 0 cm; Sequential ZOI (S. epidermidis S5-2; Day-7): 0 cm
CC1Sc2c(C(=O)O)c(=O)c3cc(F)c(N4CCN(C(=O)c5ccc([N+](=O)[O-])o5)CC4)cc3n21 (stereo not shown) [Compound 11, 6-Fluoro-1-methyl-7-(4-(5-nitrofuran-2-carbonyl)piperazin-1-yl)-4-oxo-1H,4H-[1,3]thiazeto[3,2-a]-quinoline-3-carboxylic acid]	0.125 (≈ 0.256 µM)	< 0.03	4 (≈ 8.19 µM)	0.03 (≈ 0.0614 µM)	8 (≈ 16.4 µM)	0.13 (≈ 0.266 µM)	0.625 (≈ 1.28 µM)	1 (≈ 2.05 µM)	> 16	> 16	0.25 (≈ 0.512 µM)	1 (≈ 2.05 µM)	0.5 (≈ 1.02 µM)	> 16	1 (≈ 2.05 µM)	> 16	1 (≈ 2.05 µM)	activity in words (K. pneumonia ATCC 13883): active; MIC (E. aerogenes M2-1): 0.25 µg/mL (≈ 0.512 µM); MIC (E. aerogenes NCIM 5139): 0.125 µg/mL (≈ 0.256 µM)
CC1SC2C(C(=O)O)C(=O)c3cc(F)c(N4CCN(CC(=O)c5ccccn5)CC4)cc3N12 (stereo not shown) [Compound 33, 6-Fluoro-1-methyl-4-oxo-7-(4-(2-oxo-2-(pyridin-2-yl)ethyl)piperazin-1-yl)-2a,3-dihydro-1H,4H-[1,3]thiazeto[3,2-a]quinoline-3-carboxylic acid]	0.25 (≈ 0.531 µM)	0.13 (≈ 0.276 µM)	0.5 (≈ 1.06 µM)	0.25 (≈ 0.531 µM)	8 (≈ 17 µM)	8 (≈ 17 µM)	0.125 (≈ 0.266 µM)	> 16	4 (≈ 8.5 µM)	16 (≈ 34 µM)	< 0.03	0.5 (≈ 1.06 µM)	0.06 (≈ 0.128 µM)	16 (≈ 34 µM)	0.06 (≈ 0.128 µM)	8 (≈ 17 µM)	2 (≈ 4.25 µM)	activity in words (K. pneumonia ATCC 13883): active; MIC (E. aerogenes M2-1): 0.06 µg/mL (≈ 0.128 µM); MIC (E. aerogenes NCIM 5139): 0.0312 µg/mL (≈ 0.0663 µM); MIC (Gram negative pathogens; Escherichia coli, resistant E. coli (MDR) and E. aerogens): ≤ 1 µg/mL; bio-activity (MIC) range (Gram negative pathogens; different resistant strains of P. aeruginosa, A. baumanni): 4 to 16 µg/mL
CC(=O)NC[C@H]1CN(c2ccc(N3CCN(CC(=O)Nc4ncc([N+](=O)[O-])s4)CC3)c(F)c2)C(=O)O1 [Compound 55, (S)-2-(4-(4-(5-(Acetamidomethyl)-2-oxooxazolidin-3-yl)-2-fluorophenyl)piperazin-1-yl)-N-(5-nitrothiazol-2-yl)acetamide]	0.25 (≈ 0.479 µM)	0.06 (≈ 0.115 µM)		0.5 (≈ 0.959 µM)		0.5 (≈ 0.959 µM)	0.06 (≈ 0.115 µM)	0.25 (≈ 0.479 µM)	> 16	> 16	> 16	> 16	> 16	> 16	> 16	> 16	> 16	EC50 ([3]; ATCC35984, 48 h biofilm, 24 h treatment, read-out: Concentration of compounds (mg/ml) for 50% biofilm disruption): > 2 mg/mL; fold better activity in comparison to commercial linezolid (S. aureus ATCC 43300; against MRSA): 8 fold; times more active than linezolid analogue (S. aureus ATCC 43300; against MRSA): 8 times
Nc1ccc(S(=O)(=O)c2ccc(N)cc2)cc1 [Dapsone, dapsone, reference compound]																		Inhibition of inflammation (%) at 24 h post treatment [1]: 43.82%
